This passage reports TGI and GI50 results from PubChem BioAssay (NCI).

Test systems include A498 renal; A549 NSCLC; CAKI-1 renal; CCRF-CEM leukemia; COLO 205 colon; HCT-116 colon; NCI-H23 lung; NCI/ADR-RES ovarian; OVCAR-5 ovarian; SK-MEL-5 melanoma.
Holding throughout (assay): DTP human tumour cell line panel, 48 h

SMILES strings stand for the structures. “And” between values parts separate entries of the source, which are not always exact repeats. Equal values may be shown once.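 Compound exposure: 48 hours, 5 concentrations, 96-well plates. The concentration for 50% growth inhibition is given as GI50. TGI is the concentration that stops growth completely.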

Regarding `Cn1c(=O)c2[nH]c(CCS)nc2n(C)c1=O`, the TGI in the assay with A498 renal, in the assay on A549 NSCLC, in the assay with CAKI-1 renal, in the assay with CCRF-CEM leukemia, in the assay on COLO 205 colon and in the assay on HCT-116 colon was greater than 100000 nM in each case. Also, the TGI in the assay on NCI-H23 lung, in the assay with NCI/ADR-RES ovarian, in the assay on OVCAR-5 ovarian and in the assay with SK-MEL-5 melanoma was greater than 100000 nM each time.

As to `Cc1nc2sc(C(=O)Nc3cccc(Cl)c3C)c(N)c2cc1C(O)c1ccccc1` (centres undefined), the GI50 was 15.8 nM in the assay with A498 renal; 61.4 nM in the assay on A549 NSCLC; 48.7 nM in the assay on CAKI-1 renal; 39.2 nM in the assay with CCRF-CEM leukemia; 66.7 nM in the assay with COLO 205 colon; 40.4 nM in the assay with HCT-116 colon. In addition, the GI50 in the assay with NCI-H23 lung is 63.4 nM; with NCI/ADR-RES ovarian, 31.8 nM; with OVCAR-5 ovarian it was 140 nM; with SK-MEL-5 melanoma, 52.8 nM. Further, the TGI was 59 nM with A498 renal; greater than 50100 nM in the assay on A549 NSCLC; 8460 nM with CAKI-1 renal; greater than 100000 nM with CCRF-CEM leukemia; 1370 nM with COLO 205 colon; 10900 nM in the assay on HCT-116 colon. Moreover, the TGI with NCI-H23 lung amounted to 12900 nM; in the assay on NCI/ADR-RES ovarian, 1640 nM; in the assay with OVCAR-5 ovarian it was 46500 nM; with SK-MEL-5 melanoma, 1110 nM.

For the compound `COc1ccc(/C=C\c2cc(OC)c(OC)c(OC)c2)cc1N/C=C\C(=O)c1c[nH]c2ccccc12`, the GI50 in the assay with A498 renal, in the assay with A549 NSCLC, with CAKI-1 renal, in the assay with CCRF-CEM leukemia, with COLO 205 colon and in the assay on HCT-116 colon was less than 10 nM in each case. Also, the GI50 in the assay with NCI-H23 lung, with NCI/ADR-RES ovarian, in the assay on OVCAR-5 ovarian and with SK-MEL-5 melanoma was less than 10 nM each time. The total growth inhibition concentration (TGI) with A498 renal is 15.3 nM; with A549 NSCLC, greater than 100000 nM; in the assay with CAKI-1 renal, greater than 100000 nM; in the assay on CCRF-CEM leukemia it was greater than 100000 nM; with COLO 205 colon it was less than 10 nM; with HCT-116 colon, 10400 nM. Also, the TGI in the assay with NCI-H23 lung was greater than 100000 nM; in the assay with NCI/ADR-RES ovarian it was 43300 nM; in the assay on OVCAR-5 ovarian, greater than 100000 nM; in the assay on SK-MEL-5 melanoma, 20.1 nM.

Turning to `C#CCn1c2c(c3ccccc3c1=O)C(=O)c1ccccc1-2`, the TGI with A498 renal was 82900 nM; in the assay on A549 NSCLC, 57300 nM; in the assay on CAKI-1 renal, 24300 nM; in the assay with CCRF-CEM leukemia, greater than 100000 nM; with COLO 205 colon it was greater than 100000 nM; with HCT-116 colon, greater than 100000 nM. The TGI in the assay with NCI-H23 lung is 40400 nM; with NCI/ADR-RES ovarian, 88700 nM; in the assay on OVCAR-5 ovarian, greater than 100000 nM; in the assay with SK-MEL-5 melanoma, 22100 nM.

In the case of `O=C(Oc1c(Cl)c(Cl)c(Cl)c(Cl)c1Cl)C1CCCN1C(=O)OCc1ccccc1` (centres undefined), the GI50 with A498 renal was 1990 nM; with A549 NSCLC, 3970 nM; with CAKI-1 renal, 2800 nM; in the assay with CCRF-CEM leukemia, 3010 nM; in the assay on COLO 205 colon it was 2010 nM; in the assay on HCT-116 colon it was 3430 nM. Further, the GI50 with NCI-H23 lung is 3170 nM; in the assay on NCI/ADR-RES ovarian it was 3150 nM; in the assay with OVCAR-5 ovarian, 4280 nM; in the assay on SK-MEL-5 melanoma, 2260 nM. The TGI with A498 renal is 5810 nM; in the assay with A549 NSCLC, 18200 nM; in the assay with CAKI-1 renal, 8520 nM; in the assay with CCRF-CEM leukemia, 14300 nM; in the assay on COLO 205 colon it was 3880 nM; in the assay on HCT-116 colon it was 10700 nM. Moreover, the TGI with NCI-H23 lung came out at 10100 nM; in the assay with NCI/ADR-RES ovarian, 11200 nM; in the assay on OVCAR-5 ovarian it was 17100 nM; with SK-MEL-5 melanoma, 5740 nM.

Consider `COc1cc(NC(=O)c2cc3ccccc3cc2O)c(OC)cc1Cl`, for which the GI50 in the assay with A498 renal is 1960 nM; in the assay with A549 NSCLC, 2460 nM; with CCRF-CEM leukemia, 2610 nM; in the assay on COLO 205 colon, 2440 nM; in the assay on HCT-116 colon, 2480 nM; in the assay on NCI-H23 lung, 1590 nM. For the same compound, the GI50 with NCI/ADR-RES ovarian is 1990 nM; in the assay on OVCAR-5 ovarian, 2250 nM; in the assay with SK-MEL-5 melanoma, 1380 nM. Moreover, the TGI was 5040 nM in the assay on A498 renal; 7470 nM with A549 NSCLC; 3760 nM in the assay with CAKI-1 renal; greater than 20500 nM in the assay on CCRF-CEM leukemia; 8510 nM with COLO 205 colon; 11100 nM in the assay with HCT-116 colon. In addition, the TGI with NCI-H23 lung was found to be 7050 nM; with NCI/ADR-RES ovarian, 6030 nM; in the assay on OVCAR-5 ovarian, 10600 nM; in the assay with SK-MEL-5 melanoma, 2930 nM.

As to `O=C(Cc1ccc(-c2ccc(OCCN3CCOCC3)cc2)cn1)NCc1ccccc1`, the 50% growth inhibitory concentration (GI50) with A498 renal is 24.7 nM and 27.7 nM; in the assay with A549 NSCLC, 40.5 nM and 53.7 nM; in the assay on CAKI-1 renal, 70.3 nM and 50.6 nM; in the assay with CCRF-CEM leukemia it was 39.7 nM and 43.3 nM; in the assay on COLO 205 colon, 29.1 nM and 36.1 nM; with HCT-116 colon, 37.3 nM and 39.9 nM. Moreover, the GI50 is 45.8 nM and 49.3 nM in the assay on NCI-H23 lung; 33.4 nM and 34.1 nM in the assay with NCI/ADR-RES ovarian; 60.5 nM and 119 nM in the assay with OVCAR-5 ovarian; 28.6 nM and 39.9 nM in the assay with SK-MEL-5 melanoma. Also, the TGI in the assay on A498 renal is 331 nM and 82.2 nM; in the assay with A549 NSCLC, greater than 100000 nM; in the assay with CAKI-1 renal, greater than 100000 nM; with CCRF-CEM leukemia it was greater than 100000 nM; in the assay on COLO 205 colon it was 85.8 nM and 632 nM; with HCT-116 colon, greater than 100000 nM. The TGI was greater than 100000 nM with NCI-H23 lung; greater than 100000 nM in the assay on NCI/ADR-RES ovarian; greater than 100000 nM in the assay on OVCAR-5 ovarian; 220 nM and 1250 nM with SK-MEL-5 melanoma.

`COC(=O)C[C@@H]1CC=CC(=O)/C1=C(O)/C=C/c1ccccc1`: the GI50 was 1870 nM in the assay on A498 renal; 4230 nM with A549 NSCLC; 408 nM in the assay with CAKI-1 renal; 264 nM in the assay on CCRF-CEM leukemia; 401 nM with COLO 205 colon; 169 nM with HCT-116 colon. For the same compound, the GI50 is 700 nM with NCI-H23 lung, 308 nM with NCI/ADR-RES ovarian, 1840 nM in the assay with OVCAR-5 ovarian and 1410 nM in the assay with SK-MEL-5 melanoma. For the same compound, the TGI was found to be 3820 nM in the assay with A498 renal; 22000 nM with A549 NSCLC; 1410 nM in the assay with CAKI-1 renal; 1190 nM in the assay on CCRF-CEM leukemia; 1460 nM in the assay on COLO 205 colon; 329 nM in the assay with HCT-116 colon. Further, the TGI stood at 2130 nM in the assay with NCI-H23 lung, 1970 nM in the assay on NCI/ADR-RES ovarian, 4570 nM with OVCAR-5 ovarian and 2790 nM in the assay on SK-MEL-5 melanoma.
